Results as given in patent US12187713B2, “Immunomodulators, compositions and methods thereof” (Betta Pharmaceuticals Co., Ltd, priority 2019, dated 2025).

Molecular target: PD-1/PD-L1 (Homo sapiens (Human), UniProt Q9NZQ7)
Experiment: PD-1/PD-L1 Binding Assay (Alphascreen)
Description: PD-1/PD-L1 Binding Assay (Alphascreen)
The assays were conducted in a standard black 384-well polystyrene plate with a final volume of 20 μL. Inhibitors were first serially diluted in DMSO and then added to the plate wells before the addition of other reaction components. The final concentration of DMSO in the assay was […]. Add 100 nL/well of compound to the 384 reaction plate (6008280, PerkinElmer) with Echo and centrifuge at 1000 rpm for 1 minute. Add 5 μL/well 4×PD-L1 solutions to the 384 reaction plate, centrifuge at 1000 rpm for 1 minute, and add 5 μL/well 4×PD-1 solutions, centrifuge at 1000 rpm for 1 minute, and incubate at 25° C. for 15 minutes. The concentrations of the compounds were 300, 100, 33.33, 11.11, 3.70, 1.23, 0.41, 0.137, 0.046, 0.015, 0 nM, respectively. Add 10 μL/well 2× Anti-6×His AlphaLISA Acceptor beads and Streptavidin Donor beads solution (PerkinElmer-AL356F) to the above 384 reaction plate, centrifuge at 1000 rpm for 1 minute, and incubate at 25° C. in the dark for 120 minutes. Read the AlphaLISA signal value using the Envision Reader. IC50 determination was performed by fitting the curve of percent control activity versus the log of the inhibitor concentration using the GraphPad Prism 8.0 software.

Sequence of PD-1/PD-L1 (Q9NZQ7 19-238): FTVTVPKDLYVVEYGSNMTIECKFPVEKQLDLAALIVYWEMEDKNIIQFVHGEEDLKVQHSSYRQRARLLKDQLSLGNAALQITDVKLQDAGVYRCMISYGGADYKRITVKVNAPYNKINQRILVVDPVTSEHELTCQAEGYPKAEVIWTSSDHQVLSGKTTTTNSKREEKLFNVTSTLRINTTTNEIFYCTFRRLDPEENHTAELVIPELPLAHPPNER

SMILES | IC50 (range symbols) | IC50 (numeric values)
Cc1c(-c2cnc(N3CCN(C)CC3)nc2)cccc1-c1cccc(-c2nc3cc(CN4CCC[C@H]4C(=O)O)c(OC(F)F)cc3o2)c1C [Example 282, ((6-(difluoromethoxy)-2-(2,2′-dimethyl-3′-(2-(4-methylpiperazin-1-yl)pyrimidin-5-yl)-[1,1′-biphenyl]-3-yl)benzo[d]oxazol-5-yl)methyl)-L-proline] | 5 to 50 nM | –
Cc1c(-c2nc3cc(CN4CC5(C4)CS(=O)(=O)C5)c(OC(F)F)cc3o2)cccc1-c1cccc(-c2nc3cc(CN4CCC[C@H]4C(=O)O)c(OC(F)F)cc3o2)c1C [Example 54, ((6-(difluoromethoxy)-2-(3′-(6-(difluoromethoxy)-5-((2,2-dioxido-2-thia-6-azaspiro [3.3]heptan-6-yl)methyl)benzo[d]oxazol-2-yl)-2,2′-dimethyl-[1,1′-biphenyl]-3-yl)benzo[d]oxazol-5-yl)methyl)-L-proline] | – | 6.3 nM
Cc1c(-c2nc3cc(CN4CCC[C@H]4C(=O)O)c(OC(F)F)cc3o2)cccc1-c1cccc(-c2cnc(CN3CCCC3)c(F)c2)c1CF [Example 269, ((6-(difluoromethoxy)-2-(3′-(5-fluoro-6-(pyrrolidin-1-ylmethyl)pyridin-3-yl)-2′-(fluoromethyl)-2-methyl-[1,1′-biphenyl]-3-yl)benzo[d]oxazol-5-yl)methyl)-L-proline] | 5 to 50 nM | –
Cc1c(-c2nc3cc(CN4CCC[C@H]4C(=O)O)c(OC(F)F)cc3o2)cccc1-c1cccc(-c2ccc(CN3CCCC3)nc2F)c1C [Example 270, ((6-(difluoromethoxy)-2-(3′-(2-fluoro-6-(pyrrolidin-1-ylmethyl)pyridin-3-yl)-2,2′-dimethyl-[1,1′-biphenyl]-3-yl)benzo[d]oxazol-5-yl)methyl)-L-proline] | 5 to 50 nM | –
Cc1c(-c2nc3cc(CN4CCC[C@H]4C(=O)O)c(OC(F)F)cc3o2)cccc1-c1cccc(-c2nc3cc(CN4CC(N5CCOCC5)C4)cc(C#N)c3o2)c1C [Example 148, ((2-(3′-(7-cyano-5-((3-morpholinoazetidin-1-yl)methyl)benzo[d]oxazol-2-yl)-2,2′-dimethyl-[1,1′-biphenyl]-3-yl)-6-(difluoromethoxy)benzo[d]oxazol-5-yl)methyl)-L-proline] | 5 to 50 nM | –
Cc1c(-c2nc3cc(CNC[C@@H]4CCC(=O)N4)c(OC(F)F)cc3o2)cccc1-c1cccc(-c2nc3cc(CN4CCC[C@H]4C(=O)O)c(OC(F)F)cc3o2)c1C [Example 19, ((6-(difluoromethoxy)-2-(3′-(6-(difluoromethoxy)-5-(((((S)-5-oxopyrrolidin-2-yl)methyl)amino)methyl)benzo[d]oxazol-2-yl)-2,2′-dimethyl-[1,1′-biphenyl]-3-yl)benzo[d]oxazol-5-yl)methyl)-L-proline] | – | 1.3 nM
Cc1cc(-c2cccc(-c3cccc(-c4nc5cc(CN6CCC[C@H]6C(=O)O)c(OC(F)F)cc5o4)c3C)c2C)ccc1CN1CCCC1 [Example 230, ((6-(difluoromethoxy)-2-(2,2′,3″-trimethyl-4″- (pyrrolidin-1-ylmethyl)-[1,1′:3′,1″-terphenyl]-3-yl)benzo[d]oxazol-5-yl)methyl)-L-proline] | – | 1.5 nM
Cc1c(-c2nc3cc(CNCCCNCCO)c(OC(F)F)cc3o2)cccc1-c1cccc(-c2nc3cc(CN4CCC[C@H]4C(=O)O)c(OC(F)F)cc3o2)c1C [Example 58, ((6-(difluoromethoxy)-2-(3′-(6-(difluoromethoxy)-5-(((3-((2-hydroxyethyl)amino)propyl)amino)methyl)benzo[d]oxazol-2-yl)-2,2′-dimethyl-[1,1′-biphenyl]-3-yl)benzo[d]oxazol-5-yl)methyl)-L-proline] | – | 0.79 nM
Cc1c(-c2ccc(CN3CCCC3)c(OCCc3ccc(F)cc3)c2)cccc1-c1cccc(-c2nc3cc(CN4CCC[C@H]4C(=O)O)c(OC(F)F)cc3o2)c1C [Example 249, ((6-(difluoromethoxy)-2-(3″-(4-fluorophenethoxy)-2,2′-dimethyl-4″-(pyrrolidin-1-ylmethyl)-[1,1′:3′,1″-terphenyl]-3-yl)benzo[d]oxazol-5-yl)methyl)proline] | 5 to 50 nM | –
Cc1c(-c2nc3cc(CN[C@H]4CCC[C@H]4O)c(OC(F)F)cc3o2)cccc1-c1cccc(-c2nc3cc(CN4CCC[C@H]4C(=O)O)c(OC(F)F)cc3o2)c1C [Example 27, ((6-(difluoromethoxy)-2-(3′-(6-(difluoromethoxy)-5-((((1S,2R)-2-hydroxycyclopentyl)amino)methyl)benzo[d]oxazol-2-yl)-2,2′-dimethyl-[1,1′-biphenyl]-3-yl)benzo[d]oxazol-5-yl)methyl)-L-proline] | – | 0.66 nM
Cc1c(Nc2nccc3cc(CN4CCC(O)C4)cnc23)cccc1-c1cccc(-c2nc3cc(CN4CCC[C@@H]4C(=O)O)c(OC(F)F)cc3o2)c1C (stereo partly drawn) [Example 182, ((6-(difluoromethoxy)-2-(3′-((3-((3-hydroxypyrrolidin-1-yl)methyl)-1,7-naphthyridin-8-yl)amino)-2,2′-dimethyl-[1,1′-biphenyl]-3-yl)benzo[d]oxazol-5-yl)methyl)-D-proline] | 0.1 to 5 nM | –
Cc1c(-c2ccc3c(c2)CNC3)cccc1-c1cccc(-c2nc3cc(CN4CCC[C@H]4C(=O)O)c(OC(F)F)cc3o2)c1C [Example 289, ((6-(difluoromethoxy)-2-(3′-(isoindolin-5-yl)-2,2′-dimethyl-[1,1′-biphenyl]-3-yl)benzo[d]oxazol-5-yl)methyl)-L-proline] | – | 0.66 nM

Results, then the compound that gave them:

IC50 (range symbols) | IC50 (numeric values) | SMILES
0.1 to 5 nM | – | Cc1c(Nc2nccc3cc(CN4CCC(O)C4)cnc23)cccc1-c1cccc(-c2nc3cc(CN4CC[C@H](C(=O)O)C4)c(OC(F)F)cc3o2)c1C (stereo partly drawn) [Example 180, (3S)-1-((6-(difluoromethoxy)-2-(3′-((3-((3-hydroxypyrrolidin-1-yl)methyl)-1,7-naphthyridin-8-yl)amino)-2,2′-dimethyl-[1,1′-biphenyl]-3-yl)benzo[d]oxazol-5-yl)methyl)pyrrolidine-3-carboxylic acid]
0.1 to 5 nM | – | Cc1c(-c2nc3c(o2)CN(CCO)CC3)cccc1-c1cccc(-c2nc3cc(CN4CCC[C@H]4C(=O)O)c(OC(F)F)cc3o2)c1C [Example 189, ((6-(difluoromethoxy)-2-(3′-(5-(2-hydroxyethyl)-4,5,6,7-tetrahydrooxazolo[5,4-c]pyridin-2-yl)-2,2′-dimethyl-[1,1′-biphenyl]-3-yl)benzo[d]oxazol-5-yl)methyl)-L-proline]
0.1 to 5 nM | – | Cc1c(-c2nc3cc(CN4CC[C@@H](C(=O)O)C4)c(OC(F)F)cc3o2)cccc1-c1cccc(-c2nc3cc(CN4CCCC4)cc(C#N)c3o2)c1C [Example 169, (R)-1-((2-(3′-(7-cyano-5-(pyrrolidin-1-ylmethyl)benzo[d]oxazol-2-yl)-2,2′-dimethyl-[1,1′-biphenyl]-3-yl)-6-(difluoromethoxy)benzo[d]oxazol-5-yl)methyl)pyrrolidine-3-carboxylic acid]
0.1 to 5 nM | – | Cc1c(-c2nc3cc(CN4CCC4C)ccc3o2)cccc1-c1cccc(-c2nc3cc(CN4CCC[C@H]4C(=O)O)c(OC(F)F)cc3o2)c1C (stereo partly drawn) [Example 313, ((6-(difluoromethoxy)-2-(2,2′-dimethyl-3′-(5-((2-methylazetidin-1-yl)methyl)benzo[d]oxazol-2-yl)-[1,1′-biphenyl]-3-yl)benzo[d]oxazol-5-yl)methyl)-L-proline]
0.1 to 5 nM | – | Cc1c(-c2nc3cc(CN4CCC[C@H]4C(=O)O)c(OC(F)F)cc3o2)cccc1-c1cccc(N2CCC(CN3CC(C)(C)C3)CC2)c1C [Example 308, ((6-(difluoromethoxy)-2-(3′-(4-((3,3-dimethylazetidin-1-yl)methyl)piperidin-1-yl)-2,2′-dimethyl-[1,1′-biphenyl]-3-yl)benzo[d]oxazol-5-yl)methyl)-L-proline]
0.1 to 5 nM | – | Cc1c(-c2nc3cc(CN4CCC[C@@H]4C(=O)O)c(OC(F)F)cc3o2)cccc1-c1cccc(-c2nc3ccc(CN4CC(C)(C)C4)cc3o2)c1Cl [Example 111, ((2-(2′-chloro-3′-(6-((3,3-dimethylazetidin-1-yl)methyl)benzo[d]oxazol-2-yl)-2-methyl-[1,1′-biphenyl]-3-yl)-6-(difluoromethoxy)benzo[d]oxazol-5-yl)methyl)-D-proline]
0.1 to 5 nM | – | Cc1c(-c2nc3cc(CN4CCC[C@H]4C(=O)O)c(OC(F)F)cc3o2)cccc1-c1cccc(-c2ccc(CN3CCCC3)cc2F)c1C [Example 220, ((6-(difluoromethoxy)-2-(2″-fluoro-2,2′-dimethyl-4″-(pyrrolidin-1-ylmethyl)-[1,1′:3′,1″- terphenyl]-3-yl)benzo[d]oxazol-5-yl)methyl)proline]
0.1 to 5 nM | – | Cc1c(-c2nc3cc(CN4CCC[C@H]4C(=O)O)c(OC(F)F)cc3o2)cccc1-c1cccc(-c2nc3cc(CN4CCC4(C)O)c(OC(F)F)cc3o2)c1C (stereo partly drawn) [Example 37, ((6-(difluoromethoxy)-2-(3′-(6-(difluoromethoxy)-5-((2-hydroxy-2-methylazetidin-1-yl)methyl)benzo[d]oxazol-2-yl)-2,2′-dimethyl-[1,1′-biphenyl]-3-yl)benzo[d]oxazol-5-yl)methyl)-L-proline]
0.1 to 5 nM | – | Cc1c(-c2nc3cc(CN4CCC[C@H]4C(=O)O)c(OC(F)F)cc3o2)cccc1-c1cccc(-c2nc3cc(CNC4CC(O)C4)cc(C#N)c3o2)c1C (stereo partly drawn) [Example 155]
